Measured values published in patent US20260262643A1, “HERBICIDAL BENZOXAZINES” (FMC CORPORATION, priority 2022, published 2026).

Experiments:
ragweed [1] = assay: Test A preemergence; format: in vivo, Ambrosia artemisiifolia
Outline: (§1)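 Weeds and crops in loam–sand blend were sprayed preemergence onto soil or postemergence at 2–10 cm (one- to two-leaf stage). Test chemicals were in a non-phytotoxic solvent with surfactant. After 10 days in the greenhouse, injury was rated visually against untreated controls on a 0 (no effect) to 100 (complete control) scale.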

foxtail, giant [2] = assay: Test A postemergence; format: in vivo, Setaria faberi; conditions: postemergence, 10 days
Outline: as §1

corn [3] = assay: Test A postemergence; format: in vivo, Zea mays; conditions: postemergence, 10 days
Outline: as §1

pigweed, palmer [4] = assay: Test A preemergence; format: in vivo, Amaranthus palmeri
Outline: as §1

oat, wild [5] = assay: Test A postemergence; format: in vivo, Avena fatua; conditions: postemergence, 10 days
Outline: as §1

wheat [6] = assay: Test A preemergence; format: in vivo, Triticum aestivum
Outline: as §1

ryegrass, Italian [7] = assay: Test A postemergence; format: in vivo, Lolium multiflorum; conditions: postemergence, 10 days
Outline: as §1

wheat [8] = assay: Test A postemergence; format: in vivo, Triticum aestivum; conditions: postemergence, 10 days
Outline: as §1

soybean [9] = assay: Test A preemergence; format: in vivo, Glycine max
Outline: as §1

blackgrass [10] = assay: Test A postemergence; format: in vivo, Alopecurus myosuroides; conditions: postemergence, 10 days
Outline: as §1

goosegrass [11] = assay: Test A preemergence; format: in vivo, Eleusine indica
Outline: as §1

oat, wild [12] = assay: Test A preemergence; format: in vivo, Avena fatua
Outline: as §1

blackgrass [13] = assay: Test A preemergence; format: in vivo, Alopecurus myosuroides
Outline: as §1

ragweed [14] = assay: Test A postemergence; format: in vivo, Ambrosia artemisiifolia; conditions: postemergence, 10 days
Outline: as §1

barnyardgrass = assay: Test B flooded paddy test; format: in vivo, Echinochloa crus-galli; conditions: 250 g ai/ha, Flood, 13 days, 0 to 100 scale (0 no effect, 100 complete control)
Outline: (§2)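 Application into standing water (3 cm above soil) at the two-leaf stage; flood depth held constant. Evaluation: day 13, visual comparison with controls, 0 = no injury, 100 = complete control.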

corn [15] = assay: Test A preemergence; format: in vivo, Zea mays
Outline: as §1

foxtail, giant [16] = assay: Test A preemergence; format: in vivo, Setaria faberi
Outline: as §1

sedge, umbrella = assay: Test B flooded paddy test; format: in vivo, Cyperus difformis; conditions: 250 g ai/ha, Flood, 13 days, 0 to 100 scale (0 no effect, 100 complete control)
Outline: as §2

rice = assay: Test B flooded paddy test; format: in vivo, Oryza sativa; conditions: 250 g ai/ha, Flood, 13 days, 0 to 100 scale (0 no effect, 100 complete control)
Outline: as §2

kochia [17] = assay: Test A preemergence; format: in vivo, Bassia scoparia
Outline: as §1

galium = assay: Test A postemergence; format: in vivo, Galium aparine; conditions: postemergence, 10 days
Outline: as §1

pigweed, palmer [18] = assay: Test A postemergence; format: in vivo, Amaranthus palmeri; conditions: postemergence, 10 days
Outline: as §1

soybean [19] = assay: Test A postemergence; format: in vivo, Glycine max; conditions: postemergence, 10 days
Outline: as §1

kochia [20] = assay: Test A postemergence; format: in vivo, Bassia scoparia; conditions: postemergence, 10 days
Outline: as §1

horseweed = assay: Test A postemergence; format: in vivo, Erigeron canadensis; conditions: postemergence, 10 days
Outline: as §1

ryegrass, Italian [21] = assay: Test A preemergence; format: in vivo, Lolium multiflorum
Outline: as §1

ducksalad = assay: Test B flooded paddy test; format: in vivo, Heteranthera limosa; conditions: 250 g ai/ha, Flood, 13 days, 0 to 100 scale (0 no effect, 100 complete control)
Outline: as §2

goosegrass [22] = assay: Test A postemergence; format: in vivo, Eleusine indica; conditions: postemergence, 10 days
Outline: as §1

[23] = 125 g ai/ha, visual injury after 10 days, 0 to 100 scale, 0 is no effect, 100 is complete control
[24] = 500 g ai/ha, 0 to 100 scale (0 no effect, 100 complete control), 10 days
[25] = 125 g ai/ha, 0 to 100 scale, 0 no effect, 100 complete control
[26] = 500 g ai/ha, visual injury, 0 to 100 scale (0 no effect, 100 complete control)

## CCc1ccc(-n2cnc(C3CCC3)n2)cc1C(=O)N1C[C@H](C)Oc2c(Cl)cccc21 [Compound 104]
Ragweed [1]; [23]
  Plant response rating, Ragweed: 0
Ragweed [1]; [24]
  Plant response rating, Ragweed: 40
foxtail, giant [2]; [25]
  Foxtail, Giant plant response rating: 90
foxtail, giant [2]; [26]
  Plant response rating, Foxtail, Giant: 90
Corn [3]; [25]
  Corn plant response rating: 40
Corn [3]; [26]
  Plant response rating, Corn: 80
pigweed, palmer [4]; [23]
  Plant response rating, Pigweed, Palmer: 90
pigweed, palmer [4]; [24]
  Plant response rating, Pigweed, Palmer: 100
oat, wild [5]; [25]
  Oat, Wild plant response rating: 20
oat, wild [5]; [26]
  Plant response rating, Oat, Wild: 40
Wheat [6]; [23]
  Plant response rating, Wheat: 0
Wheat [6]; [24]
  Plant response rating, Wheat: 0
ryegrass, Italian [7]; [25]
  Ryegrass, Italian plant response rating: 30
ryegrass, Italian [7]; [26]
  Plant response rating, Ryegrass, Italian: 60
Wheat [8]; [25]
  Wheat plant response rating: 10
Wheat [8]; [26]
  Plant response rating, Wheat: 10
Soybean [9]; [23]
  Plant response rating, Soybean: 60
Soybean [9]; [24]
  Plant response rating, Soybean: 90
Blackgrass [10]; [25]
  Blackgrass plant response rating: 0
Blackgrass [10]; [26]
  Plant response rating, Blackgrass: 50
Goosegrass [11]; [23]
  Plant response rating, Goosegrass: 100
Goosegrass [11]; [24]
  Plant response rating, Goosegrass: 100
oat, wild [12]; [23]
  Plant response rating, Oat, Wild: 0
oat, wild [12]; [24]
  Plant response rating, Oat, Wild: 70
Blackgrass [13]; [23]
  Plant response rating, Blackgrass: 30
Blackgrass [13]; [24]
  Plant response rating, Blackgrass: 40
Ragweed [14]; [25]
  Ragweed plant response rating: 0
Ragweed [14]; [26]
  Plant response rating, Ragweed: 30
barnyardgrass
  Plant response rating, Barnyardgrass: 60
Corn [15]; [23]
  Plant response rating, Corn: 0
Corn [15]; [24]
  Plant response rating, Corn: 0
foxtail, giant [16]; [23]
  Plant response rating, Foxtail, Giant: 100
foxtail, giant [16]; [24]
  Plant response rating, Foxtail, Giant: 100
sedge, umbrella
  Plant response rating, Sedge, Umbrella: 98
rice
  Plant response rating, Rice: 20
Kochia [17]; [23]
  Plant response rating, Kochia: 50
Kochia [17]; [24]
  Plant response rating, Kochia: 100
galium; [25]
  Galium plant response rating: 60
galium; [26]
  Plant response rating, Galium: 100
pigweed, palmer [18]; [25]
  Pigweed, Palmer plant response rating: 80
pigweed, palmer [18]; [26]
  Plant response rating, Pigweed, Palmer: 100
Soybean [19]; [25]
  Soybean plant response rating: 100
Soybean [19]; [26]
  Plant response rating, Soybean: 100
Kochia [20]; [25]
  Kochia plant response rating: 80
Kochia [20]; [26]
  Plant response rating, Kochia: 100
horseweed; [25]
  Horseweed plant response rating: 0
horseweed; [26]
  Plant response rating, Horseweed: 0
ryegrass, Italian [21]; [23]
  Plant response rating, Ryegrass, Italian: 50
ryegrass, Italian [21]; [24]
  Plant response rating, Ryegrass, Italian: 90
ducksalad
  Plant response rating, Ducksalad: 25
Goosegrass [22]; [25]
  Goosegrass plant response rating: 50
Goosegrass [22]; [26]
  Plant response rating, Goosegrass: 80
